US10238676B2, “Application of ginsenoside RG3 in preparing medicine for preventing and/or treating dementia, and medicine for treating dementia” (priority 2013, dated 2019)

Tests used:
[1] = system: patients with mild or moderate Alzheimer's disease; assay: Self-controlled clinical research, MMSE/CDR/ADL, mild or moderate Alzheimer's disease (Test Example 5); type: in vivo, human
Protocol: 99 patients with mild or moderate Alzheimer's disease, among which 47 are male, 52 are female, all aged from 55 to 85 (73.5±7.6), MMSE score is […] (16.3±2.6) points.
Patients with AD all use the ginsenoside Rg3 naristillae once a day, 10 mg/ml each time, and keep using it for 12 weeks.
Examination is conducted once every four weeks before and after medication, and the medication method is as follows:
(1) MMSE screening of AD: examining patients' cognitive functions (orientation, memory, computational power, language competence, ability in applying visual-spatial etc.; (2) Examining patents' dementia degree using the clinical dementia rating (CDR); (3) examining patents' activities of daily living using the activity of daily living scale (ADL).
SPSS statistical software is adopted for examination results. T-test is adopted before and after treatment, and it is also adopted for the ginsenoside Rg3 naristillae group and the placebo control group.

[2] = cited from earlier work
[3] = system: rat model with Alzheimer's disease; assay: Channel-type water maze test, learning and memory of rat model with Alzheimer's disease; type: in vivo, Wistar rats; conditions: AD model rats
Protocol: Water maze pre-training is performed after feeding for 1 week under the stable condition of laboratory, 60 rats with similar body weights and good flexibility are selected, and are divided into 6 groups randomly, a normal control group, a sham operated control group, a model control group, and high-dose, medium-dose and low-dose ginsenoside Rg3 groups (10, 5, 2.5 mg/kg/d), wherein each group has 10 animals.
The molding method applying intraperitoneal injection of 0.96% D-galactose prepared by normal saline is applied to rats to make model rat, 5 mL/kg, once daily for 6 continuous weeks. The rat of sham operated control group are injected with equivalent normal saline. The rat groups of the model control group and high-dose, medium-dose and low-dose ginsenoside Rg3 groups are intracranially injected with IBO starting from the 43th day, and each side is slowly injected with 1 μL of IBO, the sham operated group's rats are injected with equivalent normal saline in the same encephalic region (for 4 continuous weeks). The normal control group's rat are without any processing and eat and drink normally. The rats of high-dose, medium-dose and low-dose ginsenoside Rg3 groups are administered intragastrically with ginsenoside Rg3 oral emulsion daily while molding, and are administered for 4 w (weeks) after molding.
The changes of animal behavioristics in each group are tested by channel-type water maze test, and the learning and memory abilities of rats are evaluated by number of entering blind ends and the time needed to reach the terminal. All test results are expressed in mean±standard deviation, and the intergroup difference is subjected to variance analysis by adopting SPSS10.0 statistical package.

[4] = system: patients with Alzheimer's disease; assay: Revised Hasegawa dementia scale (HDS-R) scoring of patients with Alzheimer's disease; type: in vivo, human
Protocol: Both groups take medicine for 12 continuous weeks. 2 ml of cerebrospinal fluid is collected by lumbar puncture, and is stored at −80° C., the β-amyloid protein (Aβ) content is determined by using enzyme-linked immunosorbent assay (ELISA). A revised Hasegawa dementia scale (HDS-R) is used to score, and the scores before and after treatment are compared, increasing in scores means validness, and unchanging or decreasing in scores means invalidness. The enumeration data adopts χ^2 test, the comparison of measurement data adopts t-test, all data is processed by adopting SPSS12.0 statistical software.
Analysis on the clinical therapeutic effect of the two groups.

[5] = 99 AD patients, Rg3 naristillae 10 mg/ml once a day
[6] = Test Example 5, versus before treatment
[7] = Rg3 oral emulsion (embodiment 17) intragastric, 10 mg/kg/d
[8] = Rg3 oral emulsion intragastric, 2.5 mg/kg/d
[9] = Rg3 oral emulsion intragastric, 5 mg/kg/d
[10] = of 18 patients per group, 12 weeks

**Q.** With `CC(C)=CCC[C@](C)(O)[C@H]1CC[C@]2(C)[C@@H]1[C@H](O)C[C@@H]1[C@@]3(C)CC[C@H](O[C@@H]4O[C@H](CO)[C@@H](O)[C@H](O)[C@H]4O[C@@H]4O[C@H](CO)[C@@H](O)[C@H](O)[C@H]4O)C(C)(C)[C@@H]3CC[C@]12C` [Ginsenoside Rg3, 20(R)-ginsenoside Rg3] as the compound, how does the “ADL score before treatment” value ([1]; 99 AD patients, baseline) read?
**A.** 49.6 ± 8.2 points

**Q.** And the “CDR score before treatment” value ([1]; 99 AD patients, baseline)?
**A.** 2.1 ± 0.3 points

**Q.** And the “MMSE score before treatment” value ([1]; 99 AD patients, baseline)?
**A.** 16.3 ± 2.6 points

**Q.** And the “ADL score, treatment for 4 weeks” value [1, 5]?
**A.** 48.2 ± 7.9 points

**Q.** And the “ADL score, treatment for 12 weeks” value [1, 5]?
**A.** 42.5 ± 7.3 points

**Q.** What about the “CDR score, treatment for 4 weeks” value [1, 5] of the same compound?
**A.** 1.9 ± 0.2 points

**Q.** What about the “CDR score, treatment for 12 weeks” value [1, 5] of the same compound?
**A.** 1.5 ± 0.2 points

**Q.** What about the “MMSE score, treatment for 4 weeks” value [1, 5] of the same compound?
**A.** 17.1 ± 1.9 points

**Q.** And the “MMSE score, treatment for 12 weeks” value [1, 5]?
**A.** 19.8 ± 1.7 points

**Q.** And the “decrease of ADL score after treatment” value [1, 6]?
**A.** 7.1 points

**Q.** And the “decrease of CDR score after treatment for 12 weeks” value [1, 6]?
**A.** 0.6 points

**Q.** And the “increase of MMSE score after treatment for 12 weeks” value [1, 6]?
**A.** 3.5 points

**Q.** And the “lipid solubility and water solubility” value [2]?
**A.** relatively poor

**Q.** What about the Error times [3, 7] of the same compound?
**A.** 1.01 ± 0.41 time

**Q.** What about the Swimming out time [3, 7] of the same compound?
**A.** 12.26 ± 3.26 s

**Q.** And the Error times [3, 8]?
**A.** 1.82 ± 0.43 time

**Q.** What about the Swimming out time [3, 8] of the same compound?
**A.** 32.26 ± 3.21 s

**Q.** And the Error times [3, 9]?
**A.** 1.10 ± 0.44 time

**Q.** And the Swimming out time [3, 9]?
**A.** 19.26 ± 3.23 s

**Q.** What about the “effective rate (patients increased in HDS-R scores)” value ([4]; 18 AD patients per group, Rg3 oral liquid 10 mg/d or donepezil 5 mg/d, 12 weeks) of the same compound?
**A.** 77.8%

**Q.** What about the “Scores of clinical symptom (HDS-R), post treatment” value ([4]; AD inpatients, n = 18, Rg3 oral liquid 10 mg/d or donepezil 5 mg/d orally, 12 weeks) of the same compound?
**A.** 18.7 ± 8.1^#Δ

**Q.** And the “Scores of clinical symptom (HDS-R), before treatment” value ([4]; AD inpatients, n = 18 per group, baseline)?
**A.** 12.3 ± 5.2

**Q.** And the “number of patients constant in scores” value [4, 10]?
**A.** 3

**Q.** And the “number of patients decreased in scores” value [4, 10]?
**A.** 1

**Q.** What about the “number of patients increased in scores of clinical symptom” value [4, 10] of the same compound?
**A.** 14
